In the first experiment the target is T1, SSTR4 (Homo sapiens, UniProt P31391).
T1 construct: host or cells: CHO-K1
T1 sequence (P31391 whole entry): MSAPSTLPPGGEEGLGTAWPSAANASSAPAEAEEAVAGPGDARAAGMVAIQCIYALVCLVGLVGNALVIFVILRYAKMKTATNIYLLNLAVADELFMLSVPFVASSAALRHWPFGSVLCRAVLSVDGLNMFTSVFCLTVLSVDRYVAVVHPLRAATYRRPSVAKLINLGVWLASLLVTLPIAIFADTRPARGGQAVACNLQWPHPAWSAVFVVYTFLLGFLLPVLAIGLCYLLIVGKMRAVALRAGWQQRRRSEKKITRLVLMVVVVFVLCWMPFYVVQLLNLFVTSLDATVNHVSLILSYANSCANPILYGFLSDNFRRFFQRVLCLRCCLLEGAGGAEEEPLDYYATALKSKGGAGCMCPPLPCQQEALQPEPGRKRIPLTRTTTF
Put plainly: SSTR4 I-125 somatostatin competition binding assay (CHO-K1 membranes). As to conditions: competition with I-125 somatostatin, membranes from CHO-K1 overexpressing SSTR4; read-out: SSTR4 Binding pIC50 (converted). The method, then:
SSTR4 I-125 Somatostatin Competition Binding Assay
Membranes from CHO-K1 cells overexpressing SSTR4 are purchased from Perkin Elmer (catalog number ES-524-M400UA). Test compounds are suspended in DMSO and then diluted in assay buffer (25 mM HEPES pH 7.4, 10 mM MgCl2, 1 mM CaCl2), 0.5% BSA) plus 0.2 nM I-125 labeled somatostatin (Perkin Elmer catalog number NEX389). Fifty μL of compound/I-125 somatostatin in assay buffer are added per well to 96-well poly-propylene plate. Then 1 μg of SSTR4 membranes in 50 μL assay buffer are added per well. The Plate is incubated for 60 minutes at room temperature. FilterMat A filters (Perkin Elmer catalog number 1450-421) are pre-soaked in 0.5% PEI (Sigma catalog number P3143). The contents of the assay plate are transferred to filters with a TomTech harvester and washed 5 times with 20 mM HEPES, 100 mM NaCl. The filters are dried in a microwave oven then transferred to sample bag containing a scintillator sheet (Perkin Elmer catalog number 1450-441). The scintillator sheets are melted to filters using a heat block. The filters are then read in a MicroBeta scintillation counter. Binding Ki curves are generated using Activity Base for Screening Data Management and the results are reported as pIC50.
Consider `C[C@@H](CN1CCC1)C(=O)NC(C)(C)c1ccc(Cl)cc1` (single isomer, unassigned) [Example 155], for which the IC50 was 39.8 nM.

In the case of `C[C@H](CN1CCC1)C(=O)NC(C)(C)c1ccccc1F` (single isomer, unassigned) [Example 156], the IC50 is 100 nM.

For `O=C(CCN1CCC1)N[C@H](c1cc(F)ccc1F)C(F)F` (single isomer, unassigned) [Example 169], the IC50 is 316 nM.

As to `COc1c(F)cccc1C(C)(C)NC(=O)[C@H](C)CN1CCC1` (single isomer, unassigned) [Example 171], the IC50 is 15.8 nM.

As for `Cc1ccc([C@H](CF)NC(=O)CCN2CCC2)cc1` (single isomer, unassigned) [Example 175], the IC50 is 158 nM.

As for `C[C@H](CN1CCC1)C(=O)N[C@H](c1ccccc1)C(F)F` (single isomer, unassigned) [Example 181], the IC50 was 6.31 nM.

For the molecule `CC[C@H](CN1CCC1)C(=O)NC(C)(C)c1ccc(F)cc1` (single isomer, unassigned) [Example 182], the IC50 is 12.6 nM.

As to `CC[C@@H](CN1CCC1)C(=O)NC(C)(C)c1ccc(F)cc1` (single isomer, unassigned) [Example 183], the IC50 was 501 nM.

In the case of `CC[C@H](CN1CCC1)C(=O)NC(C)(C)c1cccc(F)c1` (single isomer, unassigned) [Example 184], the IC50 is 15.8 nM.

Consider `CC[C@@H](CN1CCC1)C(=O)NC(C)(C)c1ccc(C)cc1` (single isomer, unassigned) [Example 187], for which the IC50 is 20 nM.

Consider `O=C(CCN1CCC1)NC(c1ccc(F)cc1)C(F)(F)F` (single isomer, unassigned) [Example 190], for which the IC50 was 20 nM.

In the case of `O=C(CCN1CCC1)NC(c1cccc(Cl)c1)C(F)(F)F` (single isomer, unassigned) [Example 191], the IC50 is 10 nM.

`O=C(CCN1CCC1)NC(c1cccc(Cl)c1)C(F)(F)F` (single isomer, unassigned) [Example 192]: the IC50 was 126 nM.

For `O=C(CCN1CCC1)NC(c1cccc(F)c1)C(F)(F)F` (single isomer, unassigned) [Example 193], the IC50 is 200 nM.

In the case of `O=C(CCN1CCCC1)N[C@H](c1cccc(Cl)c1)C(F)F` (single isomer, unassigned) [Example 198], the IC50 is 20 nM.

For the molecule `CC[C@@H](CN1CCC1)C(=O)NC(C)(C)c1ccccc1F` (single isomer, unassigned) [Example 200], the IC50 was 25.1 nM.

Consider `O=C(CCN1CCC1)N[C@H](c1ccccc1)C(F)F` (single isomer, unassigned) [Example 201], for which the IC50 was 63.1 nM.

In another experiment the target is T1, SSTR4. Put plainly: Inhibition of forskolin stimulated cAMP in CHO-K1 cells overexpressing SSTR4. In kind it is cell-based. As to conditions: read-out: SSTR4 Activity pEC50 (converted). The gist of the method: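 CHO-K1 cells overexpressing SSTR4 treated 30 min at room temperature with compound in Krebs Ringer buffer containing 0.5% BSA, 300 μM IBMX and 350 nM forskolin. Intracellular cAMP measured by HTRF LANCE Ultra (665/615 nm); pEC50 values reported.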
Consider `C[C@@H](CN1CCC1)C(=O)NC(C)(C)c1ccc(Cl)cc1` (single isomer, unassigned) [Example 155], for which the EC50 was 2.51 nM.

Regarding `C[C@H](CN1CCC1)C(=O)NC(C)(C)c1ccccc1F` (single isomer, unassigned) [Example 156], the EC50 is 7.94 nM.

As for `O=C(CCN1CCC1)N[C@H](c1cc(F)ccc1F)C(F)F` (single isomer, unassigned) [Example 169], the EC50 was 2.51 nM.

`COc1c(F)cccc1C(C)(C)NC(=O)[C@H](C)CN1CCC1` (single isomer, unassigned) [Example 171]: the EC50 is 2 nM.

Take `Cc1ccc([C@H](CF)NC(=O)CCN2CCC2)cc1` (single isomer, unassigned) [Example 175]: the EC50 was 20 nM.

On to `C[C@H](CN1CCC1)C(=O)N[C@H](c1ccccc1)C(F)F` (single isomer, unassigned) [Example 181], for which the EC50 was 0.158 nM.

Regarding `CC[C@H](CN1CCC1)C(=O)NC(C)(C)c1ccc(F)cc1` (single isomer, unassigned) [Example 182], the EC50 was 1.58 nM.

For the molecule `CC[C@@H](CN1CCC1)C(=O)NC(C)(C)c1ccc(F)cc1` (single isomer, unassigned) [Example 183], the EC50 was 50.1 nM.

Regarding `CC[C@H](CN1CCC1)C(=O)NC(C)(C)c1cccc(F)c1` (single isomer, unassigned) [Example 184], the EC50 is 0.631 nM.

For `CC[C@@H](CN1CCC1)C(=O)NC(C)(C)c1ccc(C)cc1` (single isomer, unassigned) [Example 187], the EC50 was 0.794 nM.

Take `O=C(CCN1CCC1)NC(c1ccc(F)cc1)C(F)(F)F` (single isomer, unassigned) [Example 190]: the EC50 was 2 nM.

For `O=C(CCN1CCC1)NC(c1cccc(Cl)c1)C(F)(F)F` (single isomer, unassigned) [Example 191], the EC50 was 2 nM.

Regarding `O=C(CCN1CCC1)NC(c1cccc(Cl)c1)C(F)(F)F` (single isomer, unassigned) [Example 192], the EC50 was 15.8 nM.

On to `O=C(CCN1CCC1)NC(c1cccc(F)c1)C(F)(F)F` (single isomer, unassigned) [Example 193], for which the EC50 was 15.8 nM.

For the molecule `O=C(CCN1CCCC1)N[C@H](c1cccc(Cl)c1)C(F)F` (single isomer, unassigned) [Example 198], the EC50 is 6.31 nM.

As to `CC[C@@H](CN1CCC1)C(=O)NC(C)(C)c1ccccc1F` (single isomer, unassigned) [Example 200], the EC50 was 2 nM.

As to `O=C(CCN1CCC1)N[C@H](c1ccccc1)C(F)F` (single isomer, unassigned) [Example 201], the EC50 was 31.6 nM.

In the next experiment the target is T2, SSTR1 (Homo sapiens, UniProt P30872).
T2 construct: purchased Perkin Elmer ES-520-M400UA; host or cells: CHO-K1 membranes
T2 sequence (P30872 whole entry): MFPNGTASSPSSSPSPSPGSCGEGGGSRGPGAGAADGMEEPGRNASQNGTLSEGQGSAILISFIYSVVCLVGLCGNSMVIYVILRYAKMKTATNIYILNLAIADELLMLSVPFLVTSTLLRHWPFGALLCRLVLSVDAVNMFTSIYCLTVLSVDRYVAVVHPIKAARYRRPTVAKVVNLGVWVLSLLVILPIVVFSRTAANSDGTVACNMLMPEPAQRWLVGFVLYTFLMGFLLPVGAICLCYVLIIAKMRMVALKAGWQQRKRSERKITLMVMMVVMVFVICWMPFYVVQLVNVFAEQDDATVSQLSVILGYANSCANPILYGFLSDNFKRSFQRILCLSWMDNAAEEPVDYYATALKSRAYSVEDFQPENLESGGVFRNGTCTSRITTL
Put plainly: SSTR1 I-125 somatostatin competition binding assay for selectivity versus SSTR1 (CHO-K1 membranes). The conditions noted are these: competition with I-125 somatostatin, membranes from CHO-K1 overexpressing SSTR1; read-out: SSTR1 Binding pIC50 (converted). The method, then: SSTR1 I-125 Somatostatin Competition Binding Assay for Selectivity Versus SSTR1
Membranes from CHO-K1 cells overexpressing SSTR1 are purchased from Perkin Elmer (catalog number ES-520-M400UA). Test compounds are suspended in DMSO and then diluted in assay buffer (25 mM HEPES pH 7.4, 10 mM MgCl2, 1 mM CaCl2), 0.5% BSA) plus 0.4 nM I-125 labeled somatostatin (Perkin Elmer catalog number NEX389). Fifty μL of compound/I-125 somatostatin in assay buffer are added per well to 96-well poly-propylene plate. Then 10 μg of SSTR1 membranes in 50 μL assay buffer are added per well. The plate is incubated for 60 minutes at room temperature. FilterMat A filters (Perkin Elmer catalog number 1450-421) are pre-soaked in 0.5% PEI (Sigma catalog number P3143). The contents of the assay plate are transferred to filters with a TomTech harvester and washed 5 times with 20 mM HEPES, 100 mM NaCl. The filters are dried in a microwave oven then transferred to sample bag containing a scintillator sheet (Perkin Elmer catalog number 1450-441). The scintillator sheets are melted to the filters using a heat block. The filters are then read in a MicroBeta scintillation counter. Binding Ki curves are generated using Activity Base for Screening Data Management and the results are reported as pIC50.
As for `C[C@@H](CN1CCC1)C(=O)NC(C)(C)c1ccc(Cl)cc1` (single isomer, unassigned) [Example 155], the IC50 is 3160 nM.

For the molecule `C[C@H](CN1CCC1)C(=O)NC(C)(C)c1ccccc1F` (single isomer, unassigned) [Example 156], the IC50 is 20000 nM.

With `O=C(CCN1CCC1)N[C@H](c1cc(F)ccc1F)C(F)F` (single isomer, unassigned) [Example 169], the IC50 is 39800 nM.

Take `COc1c(F)cccc1C(C)(C)NC(=O)[C@H](C)CN1CCC1` (single isomer, unassigned) [Example 171]: the IC50 was 3980 nM.

As to `Cc1ccc([C@H](CF)NC(=O)CCN2CCC2)cc1` (single isomer, unassigned) [Example 175], the IC50 was 31600 nM.

`C[C@H](CN1CCC1)C(=O)N[C@H](c1ccccc1)C(F)F` (single isomer, unassigned) [Example 181]: the IC50 is 1580 nM.

For `CC[C@H](CN1CCC1)C(=O)NC(C)(C)c1ccc(F)cc1` (single isomer, unassigned) [Example 182], the IC50 was 1000 nM.

In the case of `CC[C@@H](CN1CCC1)C(=O)NC(C)(C)c1ccc(F)cc1` (single isomer, unassigned) [Example 183], the IC50 is 20000 nM.

Regarding `CC[C@H](CN1CCC1)C(=O)NC(C)(C)c1cccc(F)c1` (single isomer, unassigned) [Example 184], the IC50 was 2000 nM.

In the case of `CC[C@@H](CN1CCC1)C(=O)NC(C)(C)c1ccc(C)cc1` (single isomer, unassigned) [Example 187], the IC50 is 1580 nM.

On to `O=C(CCN1CCC1)NC(c1ccc(F)cc1)C(F)(F)F` (single isomer, unassigned) [Example 190], for which the IC50 is 3160 nM.

As to `O=C(CCN1CCC1)NC(c1cccc(Cl)c1)C(F)(F)F` (single isomer, unassigned) [Example 191], the IC50 is 2510 nM.

With `O=C(CCN1CCC1)NC(c1cccc(Cl)c1)C(F)(F)F` (single isomer, unassigned) [Example 192], the IC50 is 31600 nM.

For the molecule `O=C(CCN1CCC1)NC(c1cccc(F)c1)C(F)(F)F` (single isomer, unassigned) [Example 193], the IC50 is 31600 nM.

Consider `O=C(CCN1CCCC1)N[C@H](c1cccc(Cl)c1)C(F)F` (single isomer, unassigned) [Example 198], for which the IC50 is 7940 nM.

For the molecule `CC[C@@H](CN1CCC1)C(=O)NC(C)(C)c1ccccc1F` (single isomer, unassigned) [Example 200], the IC50 is 5010 nM.

Regarding `O=C(CCN1CCC1)N[C@H](c1ccccc1)C(F)F` (single isomer, unassigned) [Example 201], the IC50 was 25100 nM.
